Results taken from paper PMC5126668 (PeerJ, 2016).
Several values for one entry are separate records, joined by “and”; a condition that tells them apart may be missing. Identical values can stand only once.

Legend:
BAK metabolism in HLMs = assay: Metabolic elimination of BAK in HLMs and its inhibition by GA (HPLC); assay type: in vitro ADME, human; settings: for Remaining percentage of GA (%) / Inhibition of BAK by GA (%): 30 min, mean; for Inhibition of BAK by GA, single samples / remaining of GA (%), single samples: t=30 min
Procedure: The HLM mixtures were prepared on ice. […] At the end of the incubation (0 or 30 min), 200 µL of methanol-acetonitrile (1:1, V:V) solution containing tanshinone II A (internal standard) was added to terminate the reaction. The mixtures were then vortexed for 2 min followed by centrifugation at 14,500 rpm for 10 min. A 10 µL aliquot of the supernatant was then injected for HPLC analysis. […] RContr is the percentage of BAK remaining in the BAK group.

HK-2 cells = assay: HK-2 cell viability, MTT assay, with or without co-cultured HLMs; assay type: cell-based, human; settings: GA 100 µM alone
Procedure: HK-2 cells obtained from Peking Union Medical College were maintained in D/F12 medium containing 10% fetal bovine serum, 2 mM glutamine and 1 × 10^5 U/L penicillin and streptomycin at 37 °C in a 5% CO2 atmosphere. […] The samples containing HLMs were prepared in an ice bath, and three replicates were tested for each dose. In brief, HK-2 cells (100 µL) were seeded at 3 × 10^5cells/mL in 96-well plates. After 12 h, 200 µL of the test compound was added. For the BAK and GA with HLMs group, GA was pre-incubated with NADPH in HLMs for 30 min at 37 °C and then mixed with BAK; for the other groups, all tested compounds except NADPH were mixed, and NADPH was then added to start the metabolic reaction. After 4 h of culture, 100 µL of 0.5 g/L MTT was added, and the cells were cultured for 4 h. Subsequently, 150 µL of 4% isopropanol was added to cells for 15 min at 37 °C, and the absorbance at 570 nm was then read by a microplate reader (Multiskan MK3, Thermo, USA). The relative cell viability (%) was calculated as follows: Mean Absorbance of Sample/Mean Absorbance of Vehicle Control × 100%.

CYP2C9 = molecular target: T1, CYP2C9 (Homo sapiens, UniProt P11712); assay: Inhibition of CYP activities by GA in HLMs (tolbutamide); assay type: biochemical
T1 construct: tissue iPhase Pharmaceutical Services (Beijing, China) Lot # 7MMC011; host or cells: pooled human liver microsomes
Procedure: (§1) The samples containing HLMs were prepared in an ice bath, and three replicates of each dose were tested.
(§2) The reaction system consisted of 0.5 g/L HLMs, 1 mM NADPH, 25 µM phenacetin (CYP1A2 substrate), 25 µM tolbutamide (CYP2C9 substrate), 25 µM mephenytoin (CYP2C19 substrate), 10 µM dextromethorphan (CYP2D6 substrate) and 10 µM midazolam (CYP3A4 substrate). After incubation at 37 °C for 30 min, 200 µL of methanol containing 100 µg/L propranolol hydrochloride was added to terminate the reaction. The samples were then treated, and the corresponding substrate metabolites of CYP isoforms were detected according to a previously described method ([Shen et al., 2013]).

CYP2D6 = molecular target: T2, CYP2D6 (Homo sapiens, UniProt P10635); assay: Inhibition of CYP activities by GA in HLMs (dextromethorphan); assay type: biochemical
T2 construct: was investigated in HLMs; tissue iPhase Pharmaceutical Services (Beijing, China) Lot # 7MMC011; host or cells: pooled human liver microsomes
Procedure: as §1, §2

CYP2C19 = molecular target: T3, CYP2C19 (Homo sapiens, UniProt P33261); assay: Inhibition of CYP activities by GA in HLMs (mephenytoin); assay type: biochemical
T3 construct: was investigated in HLMs; tissue iPhase Pharmaceutical Services (Beijing, China) Lot # 7MMC011; host or cells: pooled human liver microsomes
Procedure: as §1, §2

T2 sequence (P10635 whole entry): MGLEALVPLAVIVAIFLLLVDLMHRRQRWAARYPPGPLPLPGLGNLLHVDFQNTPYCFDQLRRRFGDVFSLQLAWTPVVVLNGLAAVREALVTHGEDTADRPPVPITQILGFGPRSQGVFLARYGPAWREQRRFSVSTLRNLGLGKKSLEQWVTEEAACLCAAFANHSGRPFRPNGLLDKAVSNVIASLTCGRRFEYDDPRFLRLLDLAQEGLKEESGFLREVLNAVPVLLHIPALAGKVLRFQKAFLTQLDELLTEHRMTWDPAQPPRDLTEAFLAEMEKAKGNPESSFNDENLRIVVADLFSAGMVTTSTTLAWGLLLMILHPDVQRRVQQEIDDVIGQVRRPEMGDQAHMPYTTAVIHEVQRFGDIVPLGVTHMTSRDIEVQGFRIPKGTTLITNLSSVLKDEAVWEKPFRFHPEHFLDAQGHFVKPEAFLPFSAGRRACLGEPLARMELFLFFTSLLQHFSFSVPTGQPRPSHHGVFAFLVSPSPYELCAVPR
T1 sequence (P11712 whole entry): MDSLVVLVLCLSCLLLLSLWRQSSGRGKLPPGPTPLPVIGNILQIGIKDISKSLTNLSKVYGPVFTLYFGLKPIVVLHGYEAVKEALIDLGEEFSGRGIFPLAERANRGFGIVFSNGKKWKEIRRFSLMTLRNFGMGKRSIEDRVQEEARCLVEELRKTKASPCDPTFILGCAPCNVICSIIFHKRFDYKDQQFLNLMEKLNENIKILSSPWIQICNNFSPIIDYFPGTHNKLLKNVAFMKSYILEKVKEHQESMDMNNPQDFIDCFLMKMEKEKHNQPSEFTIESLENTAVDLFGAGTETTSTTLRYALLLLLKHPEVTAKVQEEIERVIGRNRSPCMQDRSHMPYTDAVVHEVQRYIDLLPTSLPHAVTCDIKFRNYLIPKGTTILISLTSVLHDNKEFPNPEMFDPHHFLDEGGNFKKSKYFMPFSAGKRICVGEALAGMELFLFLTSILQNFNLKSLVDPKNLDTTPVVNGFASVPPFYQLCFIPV
T3 sequence (P33261 whole entry): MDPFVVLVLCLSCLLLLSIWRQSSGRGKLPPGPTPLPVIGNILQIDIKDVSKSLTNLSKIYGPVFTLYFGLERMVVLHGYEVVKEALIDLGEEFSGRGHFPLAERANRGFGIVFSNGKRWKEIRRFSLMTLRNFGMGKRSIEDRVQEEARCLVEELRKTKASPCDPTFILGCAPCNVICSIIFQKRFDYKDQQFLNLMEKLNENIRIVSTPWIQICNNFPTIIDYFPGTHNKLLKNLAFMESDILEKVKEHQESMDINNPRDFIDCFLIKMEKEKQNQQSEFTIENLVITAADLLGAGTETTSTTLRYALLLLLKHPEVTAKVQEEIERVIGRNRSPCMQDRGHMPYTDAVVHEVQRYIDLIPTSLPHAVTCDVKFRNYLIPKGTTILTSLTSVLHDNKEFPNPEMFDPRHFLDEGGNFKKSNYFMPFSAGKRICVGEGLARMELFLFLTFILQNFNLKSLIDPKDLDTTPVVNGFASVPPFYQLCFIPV

Q: For CC1(C)[C@@H](O)CC[C@]2(C)[C@H]3C(=O)C=C4[C@@H]5C[C@@](C)(C(=O)O)CC[C@]5(C)CC[C@@]4(C)[C@]3(C)CC[C@@H]12 [GA, Glycyrrhetinic acid], which “Remaining percentage of GA (%)” value (BAK metabolism in HLMs; GA 12.5 µM with BAK 10 µM, HLMs) is on record?
A: 99.37 ± 9.39% and 99.37%

Q: What about the “Inhibition of BAK by GA (%)” value (BAK metabolism in HLMs; GA 12.5 µM, BAK 10 µM, HLMs) of the same compound?
A: 23% and 22.72 ± 4.55% and 22.72%

Q: What about the “Inhibition of BAK by GA, single samples” value (BAK metabolism in HLMs; GA 12.5 µM, BAK 10 µM) of the same compound?
A: 17.95% and 23.22% and 27.00%

Q: And the “remaining of GA (%), single samples” value (BAK metabolism in HLMs; GA 12.5 µM, BAK 10 µM)?
A: 94.84% and 93.11% and 110.17%

Q: What about the “Remaining percentage of GA (%)” value (BAK metabolism in HLMs; GA 62.5 µM with BAK 10 µM, HLMs) of the same compound?
A: 100.7 ± 12.33% and 100.77%

Q: What about the “Inhibition of BAK by GA (%)” value (BAK metabolism in HLMs; GA 62.5 µM, BAK 10 µM, HLMs) of the same compound?
A: 44% and 43.85 ± 22.41% and 43.85%

Q: And the “remaining of GA (%), single samples” value (BAK metabolism in HLMs; GA 62.5 µM, BAK 10 µM)?
A: 112.61% and 101.67% and 88.01%

Q: What about the “remaining of GA (%), single samples” value (BAK metabolism in HLMs; GA 93.75 µM, BAK 10 µM) of the same compound?
A: 94.57% and 101.22%

Q: What about the “Remaining percentage of GA (%)” value (BAK metabolism in HLMs; GA 125.0 µM with BAK 10 µM, HLMs) of the same compound?
A: 107.8 ± 7.54% and 107.76%

Q: What about the “Inhibition of BAK by GA (%)” value (BAK metabolism in HLMs; GA 125.0 µM, BAK 10 µM, HLMs) of the same compound?
A: 92% and 92.00 ± 4.64%

Q: What about the “Inhibition of BAK by GA, single samples” value (BAK metabolism in HLMs; GA 125 µM, BAK 10 µM) of the same compound?
A: 97.25% and 88.45% and 90.28%

Q: What about the “remaining of GA (%), single samples” value (BAK metabolism in HLMs; GA 125 µM, BAK 10 µM) of the same compound?
A: 101.56% and 105.56% and 116.14%

Q: And the “GA concentrations at which significant inhibition of BAK metabolic clearance was observed” value (BAK metabolism in HLMs; HLMs, BAK 10 µM)?
A: above 12.5 µM

Q: And the “effect on HK-2 cell survival” value (HK-2 cells)?
A: did not affect

Q: What about the IC50 (CYP2C9; HLMs, 30 min pre-incubation with NADPH, tolbutamide 25 µM) of the same compound?
A: 26.5 ± 3.08 µM

Q: What about the activity at 30 min, 0.1 µM (CYP2C9; human, human liver microsomes, probe tolbutamide 25 µM, CYP2C9-30min, GA 0.1000, vs control, read-out: Relative activity (%)) of the same compound?
A: 114%

Q: And the activity at 30 min, 1 µM (CYP2C9; human, human liver microsomes, probe tolbutamide 25 µM, CYP2C9-30min, GA 1.0000, vs control, read-out: Relative activity (%))?
A: 81%

Q: And the activity at 30 min, 6.25 µM (CYP2C9; human, human liver microsomes, probe tolbutamide 25 µM, CYP2C9-30min, GA 6.2500, vs control, read-out: Relative activity (%))?
A: 76.2%

Q: And the activity at 30 min, 31.25 µM (CYP2C9; human, human liver microsomes, probe tolbutamide 25 µM, CYP2C9-30min, GA 31.2500, vs control, read-out: Relative activity (%))?
A: 56.1%

Q: What about the activity at 30 min, 100 µM (CYP2C9; human, human liver microsomes, probe tolbutamide 25 µM, CYP2C9-30min, GA 100.0000, vs control, read-out: Relative activity (%)) of the same compound?
A: 48.9%

Q: What about the activity at 30 min, 156.25 µM (CYP2C9; human, human liver microsomes, probe tolbutamide 25 µM, CYP2C9-30min, GA 156.2500, vs control, read-out: Relative activity (%)) of the same compound?
A: 46.2%

Q: What about the activity at 30 min, 312.5 µM (CYP2C9; human, human liver microsomes, probe tolbutamide 25 µM, CYP2C9-30min, GA 312.5000, vs control, read-out: Relative activity (%)) of the same compound?
A: 18.1%

Q: What about the activity at 30 min, […] (CYP2C9; human, human liver microsomes, probe tolbutamide 25 µM, read-out: Relative activity (%)) of the same compound?
A: 35.9%

Q: And the activity at 30 min, 1000 µM (CYP2C9; human, human liver microsomes, probe tolbutamide (25 µM), CYP2C9-30min, GA 1000.0000, vs control, read-out: Relative activity (%))?
A: 14.9%

Q: And the IC50 (CYP2D6; HLMs, 30 min pre-incubation with NADPH, dextromethorphan 10 µM)?
A: 263 ± 1.05 µM

Q: What about the activity at 30 min, 0.1 µM (CYP2D6; human, human liver microsomes, probe dextromethorphan (10 µM), CYP2D6-30min, GA 0.10, vs control, read-out: Relative activity (%)) of the same compound?
A: 96.4%

Q: What about the activity at 30 min, 1 µM (CYP2D6; human, human liver microsomes, probe dextromethorphan (10 µM), CYP2D6-30min, GA 1.00, vs control, read-out: Relative activity (%)) of the same compound?
A: 92.4%

Q: What about the activity at 30 min, 6.25 µM (CYP2D6; human, human liver microsomes, probe dextromethorphan (10 µM), CYP2D6-30min, GA 6.25, vs control, read-out: Relative activity (%)) of the same compound?
A: 96%

Q: What about the activity at 30 min, 31.25 µM (CYP2D6; human, human liver microsomes, probe dextromethorphan (10 µM), CYP2D6-30min, GA 31.25, vs control, read-out: Relative activity (%)) of the same compound?
A: 91.1%

Q: And the activity at 30 min, 100 µM (CYP2D6; human, human liver microsomes, probe dextromethorphan (10 µM), CYP2D6-30min, GA 100.00, vs control, read-out: Relative activity (%))?
A: 85.1%

Q: And the activity at 30 min, 156.25 µM (CYP2D6; human, human liver microsomes, probe dextromethorphan (10 µM), CYP2D6-30min, GA 156.25, vs control, read-out: Relative activity (%))?
A: 81.7%

Q: What about the activity at 30 min, 312.5 µM (CYP2D6; human, human liver microsomes, probe dextromethorphan (10 µM), CYP2D6-30min, GA 312.50, vs control, read-out: Relative activity (%)) of the same compound?
A: 42%

Q: And the activity at 30 min, 1000 µM (CYP2D6; human, human liver microsomes, probe dextromethorphan (10 µM), CYP2D6-30min, GA 1000.00, vs control, read-out: Relative activity (%))?
A: 29.3%

Q: What about the activity at 30 min, […] (CYP2D6; human, human liver microsomes, probe dextromethorphan (10 µM), read-out: Relative activity (%)) of the same compound?
A: 69.7%

Q: And the IC50 (CYP2C19; HLMs, 30 min pre-incubation with NADPH, mephenytoin 25 µM)?
A: 175.2 ± 1.26 µM

Q: What about the activity at 30 min, 0.1 µM (CYP2C19; human, human liver microsomes, probe mephenytoin (25 µM), CYP2C19-30min, GA 0.1000, vs control, read-out: Relative activity (%)) of the same compound?
A: 117%

Q: And the activity at 30 min, 1 µM (CYP2C19; human, human liver microsomes, probe mephenytoin (25 µM), CYP2C19-30min, GA 1.0000, vs control, read-out: Relative activity (%))?
A: 105%

Q: What about the activity at 30 min, 6.25 µM (CYP2C19; human, human liver microsomes, probe mephenytoin (25 µM), CYP2C19-30min, GA 6.2500, vs control, read-out: Relative activity (%)) of the same compound?
A: 88%

Q: What about the activity at 30 min, 31.25 µM (CYP2C19; human, human liver microsomes, probe mephenytoin (25 µM), CYP2C19-30min, GA 31.2500, vs control, read-out: Relative activity (%)) of the same compound?
A: 80%

Q: What about the activity at 30 min, 100 µM (CYP2C19; human, human liver microsomes, probe mephenytoin (25 µM), CYP2C19-30min, GA 100.0000, vs control, read-out: Relative activity (%)) of the same compound?
A: 72.5%

Q: And the activity at 30 min, 156.25 µM (CYP2C19; human, human liver microsomes, probe mephenytoin (25 µM), CYP2C19-30min, GA 156.2500, vs control, read-out: Relative activity (%))?
A: 57.9%

Q: And the activity at 30 min, 312.5 µM (CYP2C19; human, human liver microsomes, probe mephenytoin (25 µM), CYP2C19-30min, GA 312.5000, vs control, read-out: Relative activity (%))?
A: 0%

Q: What about the activity at 30 min, […] (CYP2C19; human, human liver microsomes, probe mephenytoin (25 µM), read-out: Relative activity (%)) of the same compound?
A: 36.8%
